In patent publication US11008340B2, “Modulators of ROR-gamma” (Vitae Pharmaceuticals, LLC, priority 2015, dated 2021):
Read-outs that look alike come from different tables or passages of the source.

Columns and labels:
[1] = biological target: T1, recombinant RORγ Ligand Binding Domain (LBD) protein (Homo sapiens, UniProt P51449); experiment: Radio-Ligand RORγ Binding Assay (Assay 1); details: radio-ligand competition, RORγ LBD, read-out: Avg ROR Bind Ki
T1 construct: 6×His; GST
T1 sequence (P51449 269-508 limits assumed): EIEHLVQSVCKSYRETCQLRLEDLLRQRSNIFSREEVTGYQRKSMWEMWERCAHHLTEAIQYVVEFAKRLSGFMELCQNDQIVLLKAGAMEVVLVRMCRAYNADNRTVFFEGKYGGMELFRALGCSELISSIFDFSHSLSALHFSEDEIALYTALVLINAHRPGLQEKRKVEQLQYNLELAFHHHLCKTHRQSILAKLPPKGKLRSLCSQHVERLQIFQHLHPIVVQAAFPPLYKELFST
Method in brief: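 Cell-free SPA competition between compound and 25-hydroxy[26,27-^3H]-cholesterol for 6×His-GST-tagged RORγ LBD in 50 mM HEPES pH 7.4 with NaCl, MgCl2, glycerol, CHAPS, octylglucoside and DTT. Mix was shaken 20 min, held 10 min at rt, then read after poly-Lys YSi beads. IC50 came from a four-parameter fit, and Ki from radioligand KD.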

[2] = biological target: T2, full-length RORγt in Jurkat cells (Homo sapiens, UniProt P51449); experiment: RORγt 5×RORE Assay in Jurkat Cells (Assay 2); type: cell-based; details: 5×RORE luciferase reporter
T2 construct: transcriptional activity of the full-length RORγt in Jurkat cells; host or cells: Jurkat cells (ATCC TIB-152)
T2 sequence (P51449 1-497 isoform P51449-2): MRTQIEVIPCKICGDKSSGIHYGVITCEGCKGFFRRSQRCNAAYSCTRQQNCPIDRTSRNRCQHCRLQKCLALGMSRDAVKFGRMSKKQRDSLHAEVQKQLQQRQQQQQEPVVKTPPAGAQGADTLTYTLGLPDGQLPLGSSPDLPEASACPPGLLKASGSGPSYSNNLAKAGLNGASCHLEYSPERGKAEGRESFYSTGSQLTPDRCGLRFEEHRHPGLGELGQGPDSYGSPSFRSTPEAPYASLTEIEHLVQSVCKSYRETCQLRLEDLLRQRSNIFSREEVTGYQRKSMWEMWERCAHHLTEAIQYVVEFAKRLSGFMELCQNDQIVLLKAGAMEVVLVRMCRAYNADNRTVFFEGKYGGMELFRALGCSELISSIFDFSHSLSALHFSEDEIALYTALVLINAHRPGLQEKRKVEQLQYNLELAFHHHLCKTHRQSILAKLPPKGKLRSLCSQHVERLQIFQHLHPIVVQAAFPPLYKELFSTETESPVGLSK
Method in brief: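 Inverse agonism measured as reduced NanoGlo signal from secreted NanoLuc in conditioned supernatant after 16-18 hrs compound exposure (37° C, 0.1% DMSO). Reporter: 5×RORE-driven secNluc, co-transfected with full-length RORγt into Jurkat cells cultured in delipidated-FBS, phenol-red-free RPMI.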

[3] = 25-hydroxy [26,27-3H]-cholesterol
[4] = Table 20, read-out: Avg ROR γt/5x IC5
[5] = head without unit (Tables 15, 17)
[6] = head without unit (Tables 15, 17), read-out: Avg ROR γt/5x IC50

Row | Compound | Ki [1, 3] [nM] | IC50 ([2]; read-out: Avg ROR γt/5x IC50) [nM] | IC50 [2, 4] [nM] | Ki [1, 5] [nM] | IC50 [2, 6] [nM]
1 | CCS(=O)(=O)c1ccc([C@H](CO)NC(=O)c2ccc3c(OC[C@H]4CC[C@H](C(F)(F)F)CC4)nc(OC)cc3c2)cc1 [Hy1A-23, N-((R)-1-(4-(ethylsulfonyl)phenyl)-2-hydroxyethyl)-3-methoxy-1-(((1r,4R)-4-(trifluoromethyl)cyclohexyl)methoxy)isoquinoline-6-carboxamide] | < 100 | < 100 | – | – | –
2 | CCS(=O)(=O)c1ccc(CNC(=O)c2ccc3c(c2)CN(c2nccc(C(F)(F)F)n2)C[C@@H]3C(C)C)cc1 (single isomer, unassigned) [Hy7-14.2] | < 100 | – | > 1000 | – | –
3 | CCS(=O)(=O)c1ccc(CNC(=O)c2ccc3c(c2)CN(c2ncc(C4CC4)cn2)C[C@@H]3C(C)C)cc1 (single isomer, unassigned) [Hy7-4.2] | < 100 | – | > 1000 | – | –
4 | CCC1c2ccc(C(=O)NC(CO)c3ccc(S(=O)(=O)CC)cc3)cc2CCN1CC1CCC(C(F)(F)F)CC1 (single isomer, unassigned) [Hy2A-28.1] | < 100 | < 100 | – | – | –
5 | CCS(=O)(=O)c1ccc(CNC(=O)c2ccc3c(c2)CCN(Cc2ccc(Cl)cc2)C3C(C)C)cc1 (racemic) [Hy2A-19, 2-(4-chlorobenzyl)-N-(4-(ethylsulfonyl)benzyl)-1-isopropyl-1,2,3,4-tetrahydroisoquinoline-6-carboxamide] | < 100 | < 100 | – | – | –
6 | CCS(=O)(=O)c1ccc([C@H](CO)NC(=O)c2ccc3c(OC[C@H]4CC[C@H](C(F)(F)F)CC4)nc(C)cc3c2)nc1 (single isomer, unassigned) [Hy1A-22.1] | < 100 | < 100 | – | – | –
7 | CCOC(=O)c1cnc(N2CCc3cc(C(=O)NCc4ccc(S(=O)(=O)CC)cc4)ccc3[C@@H]2C(C)C)nc1C(F)(F)F (single isomer, unassigned) [Hy2A-5.1] | < 100 | 100 to 1000 | – | – | –
8 | CCS(=O)(=O)c1ccc([C@H](CO)NC(=O)c2cc3ccnc(OCc4ccc(C(F)(F)F)cc4)c3n2C)cc1 [Hy4-4, (R)-N-(1-(4-(ethylsulfonyl)phenyl)-2-hydroxyethyl)-1-methyl-7-((4-(trifluoromethyl)benzyl)oxy)-1H-pyrrolo[2,3-c]pyridine-2-carboxamide] | – | – | – | < 100 | 100 to 1000
9 | CCS(=O)(=O)c1ccc(CNC(=O)c2ccc3c(c2)CN(c2ncc(-c4ccc(=O)[nH]c4)cn2)C[C@H]3C(C)C)cc1 (single isomer, unassigned) [Hy7-21.1] | < 100 | – | 100 to 1000 | – | –
10 | CCS(=O)(=O)c1ccc(CNC(=O)c2ccc3c(OC[C@H]4CC[C@H](C(F)(F)F)CC4)nccc3c2)cc1 [Hy1A-5, N-(4-(ethylsulfonyl)benzyl)-1-(((1r,4r)-4-(trifluoromethyl)cyclohexyl)methoxy)isoquinoline-6-carboxamide] | < 100 | 100 to 1000 | – | – | –
11 | CCS(=O)(=O)c1ccc(CNC(=O)c2ccc3c(c2)CN(Cc2ccc(F)cc2)C[C@H]3C(C)C)cc1 (single isomer, unassigned) [Hy7-27.1] | < 100 | – | > 1000 | – | –
12 | Mixture of N-((R)-1-(4-(ethylsulfonyl)phenyl)-2-hydroxyethyl)-3-methyl-1-(((3S,6S)-6-(trifluoromethyl)tetrahydro-2H-pyran-3-yl)methoxy)isoquinoline-6-carboxamide and N-((R)-1-(4-(ethylsulfonyl)phenyl)-2-hydroxyethyl)-3-methyl-1-(((3R,6R)-6-(trifluoromethyl)tetrahydro-2H-pyran-3-yl)methoxy)isoquinoline-6-carboxamide [Hy1A-18.3] | < 100 | > 1000 | – | – | –
13 | CCS(=O)(=O)c1ccc(CNC(=O)c2ccc3c(c2)CCN(Cc2ncc(Br)cn2)[C@H]3C(C)C)cc1 (single isomer, unassigned) [Hy2A-26.1] | < 100 | 100 to 1000 | – | – | –
14 | CCS(=O)(=O)c1ccc(CNC(=O)c2ccc3c(C4CC4)n(C[C@H]4CC[C@H](C(F)(F)F)CC4)nc3c2)cc1 [Hy3A-2, 3-cyclopropyl-N-(4-(ethylsulfonyl)benzyl)-2-(((1r,4r)-4-(trifluoromethyl)cyclohexyl)methyl)-2H-indazole-6-carboxamide] | < 100 | < 100 | – | – | –
15 | CC[C@@H]1CN(c2ccc(C(F)(F)F)cc2)C(=O)c2cc(C(=O)NCc3ccc(S(=O)(=O)CC)cc3)ccc21 (single isomer, unassigned) [Hy7-12.1] | < 100 | – | 100 to 1000 | – | –
16 | CCS(=O)(=O)c1ccc(CNC(=O)c2ccc3c(c2)CCN(Cc2ccc(C#N)nc2)[C@H]3C(C)C)cc1 (single isomer, unassigned) [Hy2A-17.1] | < 100 | < 100 | – | – | –
17 | CCC1c2ccc(C(=O)NC(CO)c3ccc(S(=O)(=O)CC)cc3)cc2CCN1CC1CCC(C(F)(F)F)CC1 (single isomer, unassigned) [Hy2A-28.2] | < 100 | 100 to 1000 | – | – | –
18 | CCS(=O)(=O)c1ccc(CNC(=O)c2ccc3c(OC4CCC(C(F)(F)F)CC4)nccc3c2)cc1 (single isomer, unassigned) [Hy1A-3.2, N-(4-(ethylsulfonyl)benzyl)-1-(((1r,4r)-4-(trifluoromethyl)cyclohexyl)oxy)isoquinoline-6-carboxamide] | < 100 | > 1000 | – | – | –
19 | CC[C@@H]1CN(c2ncc(C(F)(F)F)cc2C)Cc2cc(C(=O)NCc3ccc(S(=O)(=O)CC)cc3)ccc21 (single isomer, unassigned) [Hy7-13.1] | < 100 | – | < 100 | – | –
20 | CCS(=O)(=O)c1ccc(CNC(=O)c2ccc3c(c2)CCN(Cc2ncc(C)cn2)[C@H]3C(C)C)cc1 (single isomer, unassigned) [Hy2A-12.1] | 100 to 1000 | 100 to 1000 | – | – | –
21 | CCS(=O)(=O)c1ccc(CNC(=O)c2cc3ccnc(OC[C@H]4CC[C@H](C(F)(F)F)CC4)c3n2C)cc1 [Hy4-1, N-(4-(ethylsulfonyl)benzyl)-1-methyl-7-(((1r,4r)-4-(trifluoromethyl)cyclohexyl)methoxy)-1H-pyrrolo[2,3-c]pyridine-2-carboxamide] | – | – | – | < 100 | 100 to 1000
22 | CCS(=O)(=O)c1ccc(CNC(=O)c2ccc3c(c2)CCN(Cc2ccc(Cl)cn2)C3C(C)C)cc1 (racemic) [Hy2A-21, 2-((5-chloropyridin-2-yl)methyl)-N-(4-(ethylsulfonyl)benzyl)-1-isopropyl-1,2,3,4-tetrahydroisoquinoline-6-carboxamide] | < 100 | < 100 | – | – | –
23 | CCS(=O)(=O)c1ccc(CNC(=O)c2ccc3c(c2)CN(Cc2ccc(Cl)cc2)C[C@@H]3C(C)C)cc1 (single isomer, unassigned) [Hy7-29.2] | < 100 | – | 100 to 1000 | – | –
24 | CCS(=O)(=O)c1ccc([C@H](CO)NC(=O)c2ccc3c(OCc4ccc(F)cc4)nc(C)cc3c2)cc1 [Hy1A-13, (R)-N-(1-(4-(ethylsulfonyl)phenyl)-2-hydroxyethyl)-1-((4-fluorobenzyl)oxy)-3-methylisoquinoline-6-carboxamide] | < 100 | 100 to 1000 | – | – | –
25 | CC[C@H]1CN(c2ccc(C(F)(F)F)cc2)C(=O)c2cc(C(=O)NCc3ccc(S(=O)(=O)CC)cc3)ccc21 (single isomer, unassigned) [Hy7-12.2] | < 100 | – | 100 to 1000 | – | –
26 | CCS(=O)(=O)c1ccc(CNC(=O)c2ccc3c(c2)CCN(c2nccc(C(F)(F)F)n2)C3C(C)C)cc1 (stereo not shown) [Hy2A-3, N-(4-(ethylsulfonyl)benzyl)-1-isopropyl-2-(4-(trifluoromethyl)pyrimidin-2-yl)-1,2,3,4-tetrahydroisoquinoline-6-carboxamide] | < 100 | > 1000 | – | – | –
